What was measured:
[1] = Inhibition of HCV NS3-4A protease; design: species or system Hepacivirus hominis
Hepatitis C virus = assay: Antiviral activity against HCV replicon; type: functional, organism-based, Hepacivirus hominis

Compound	IC50 [1] [nM]	EC50 (Hepatitis C virus) [nM]
COc1ccc2c(O[C@@H]3C[C@H]4C(=O)N[C@]5(C(=O)O)C[C@H]5/C=C\CCCCC[C@H](NC(=O)OC5CCCC5)C(=O)N4C3)cc(-c3csc(NC(C)C)n3)nc2c1 [CILUPREVIR]	3	1.2
C=C[C@@H]1C[C@]1(NC(=O)[C@@H]1C[C@@H](Oc2cc(-c3ccccc3)nc3cc(OC)ccc23)CN1C(=O)N(NC(=O)OC(C)(C)C)C1CCCCC1)C(=O)O	3500	–

Continued by falling IC50 [1], values first:

IC50 [1] [nM]	EC50 (Hepatitis C virus) [nM]	Compound
3800	31000	COc1ccc2c(O[C@@H]3C[C@H]4C(=O)N[C@]5(C(=O)O)C[C@H]5/C=C\CCCCCN(NC(=O)OC(C)(C)C)C(=O)N4C3)cc(-c3ccccc3)nc2c1
2100	53000	C=C[C@@H]1C[C@]1(NC(=O)[C@@H]1C[C@@H](Oc2cc(-c3ccccc3)nc3cc(OC)ccc23)CN1C(=O)N(CC(C)C)NC(=O)OC(C)(C)C)C(=O)O
11	77	COc1ccc2c(O[C@@H]3C[C@H]4C(=O)N[C@]5(C(=O)O)C[C@H]5/C=C\CCCCC[C@H](NC(=O)OC(C)(C)C)C(=O)N4C3)cc(-c3ccccc3)nc2c1

— ChEMBL document CHEMBL1144799, “Synthesis, antiviral activity, and conformational studies of a P3 aza-peptide analog of a potent macrocyclic tripeptide HCV protease inhibitor” (Bioorg Med Chem Lett, 2008)
